Test results from article PMC12018770, “DEAD‐Box Helicase 6 Blockade in Brain‐Derived Aβ Oligomers From Alzheimer's Disease Patients Attenuates Neurotoxicity” (MedComm, 2025).
“Also recorded” adds a separate entry of the source.

Tests used:
Aβ42 oligomers [1] = test: Binding of biotin‐labeled short peptides to Aβ42 oligomers; conditions: biotin-labeled peptide probes; bands at 30 and 10 kDa for binders
Experimental: We characterized the molecular mechanisms by which DDX6 influences Aβ oligomer neurotoxicity using real‐time quaking‐induced conversion (RT‐QuIC) to determine whether DDX6 promotes the formation of Aβ fibrillar plaques and oligomers. […] Next, we performed dot blotting assays (Figure 7D,E) on the four treatment groups using the A11 antibody. […] We also assessed the cytotoxic effects of the four treatment groups on HT‐22 cell cultures using CCK‐8 assays. […] Specific gray values were calculated using Total Lab 100 (Nonlinear Dynamics, Newcastle upon Tyne, UK).
(A) Cell counting kit‐8 (CCK‐8) cytotoxicity assay (n = 3). […] Total Lab 100 analysis software was used to calculate the percentage of gray values for 157 polypeptide spots.
The Aβ42 peptide was obtained from Abcam (#ab120301, USA). Aβ42 was solubilized using 1 mM hexafluoroisopropanol (#105228; Sigma‐Aldrich, Germany) and evaporated overnight in a desiccator to form a dry film. The film was then dissolved in dimethyl sulfoxide (#D8418; Sigma‐Aldrich) to a concentration of 5 mM, mixed with phosphate‐buffered saline, and incubated for 72 h at 4°C. The GST‐DDX6 protein was synthesized by KMD Bioscience Biotech Co., Ltd. (Tianjin, China). The biotin‐labeled short peptide was synthesized by Hubei Qiangyao Biotechnology Co., Ltd. (Hubei, China).

Aβ42 oligomers [2] = test: Peptide chip microarray of DDX6 peptides (1–157) with Aβ42 oligomers; conditions: Aβ oligomers 2.0 µg/mL, overnight 4°C; ECL; > 30% indicates effective binding site; Total Lab 100
[3] = system: human‐derived Aβ oligomers; test: AP-MS with SAINTexpress scoring of binding to human‐derived Aβ oligomers; conditions: score 0 to 1; criteria SAINT score > 0.5 and fold change ≥ 2; AD1–AD6, n = 6
Description: Not all identified proteins bind to Aβ oligomers. Therefore, we used the SAINTexpress statistical method to screen for proteins most likely to interact with human‐derived Aβ oligomers. SAINTexpress assigns probability scores to factors interacting with target proteins, providing a value between 0 and 1, where higher scores indicate a greater likelihood of interaction with Aβ oligomers. Based on the analyzed results, we plotted the fold change on the x‐axis and SAINT scores on the y‐axis, with each point representing a protein. Proteins meeting the criteria of a SAINT score > 0.5 and fold change ≥ 2 were considered the most likely to bind Aβ oligomers (highlighted in red). Through rigorous analysis, we identified four proteins as binding partners (Figure 1C): DDX6 (SAINT score = 0.5783), DSP (SAINT score = 0.6608), JUP (SAINT score = 0.5846), and HRNR (SAINT score = 0.5246).
An aliquot of each peptide mixture was loaded onto a trap column (in‐house‐fabricated column packed with a reversed‐phase ReproSil‐Pur C18‐AQ resin, 150 µm × 15 cm, C18, 3 µm, 100 Å, Dr. Maisch GmbH, Germany) connected to an analytical column (EASY‐Spray column, […] × 75 µm ID, PepMap RSLC C18, 2 µm, 100 Å, Thermo Scientific, USA) using the autosampler of an EASY‐nLC 1200 HPLC system (Thermo Fisher Scientific). The peptides were eluted using a gradient (solvent A: 0.1% formic acid in water; solvent B: 80% acetonitrile/0.1% formic acid in water; Sigma, Germany) directly into a Q Exactive Hybrid Quadrupole‐Orbitrap mass spectrometer (Thermo Fisher Scientific). The gradient program was as follows: 4%–8% solvent B over 2 min, 8%–28% solvent B over 43 min, 28%–40% solvent B over 10 min, 40%–95% solvent B over 1 min, and 95% solvent B for 10 min. The following mass spectrometry parameters were used: spray voltage, 2.2 kV; capillary temperature, 270°C; MS resolution, 70,000 at 400 m/z; MS precursor m/z range, 300.0–1800.0 m/z; activation type, high‐energy collision dissociation; normalized collision energy, 28.0; activation time, […]; and data‐dependent MS/MS, top 20 most intense peptide ions selected based on the preview scan in the Orbitrap.
The raw MS files (Figure S5) were analyzed and searched against species‐specific protein databases using MaxQuant (v1.6.2.10). The following parameters were applied: maximum missed cleavages, 2; precursor ion mass tolerance, 20 ppm; and MS/MS tolerance, 20 ppm. Peptides and proteins were filtered to achieve a false discovery rate of < 1% using a target‐decoy database strategy, and only proteins with at least two unique peptides were reported. […] SAINT is a probabilistic method for scoring protein–protein interactions in AP‐MS experiments, enabling the identification of proteins most likely to interact with target proteins. […]

[4] = system: human‐derived Aβ oligomers; test: Co-immunoprecipitation / Western blotting of protein-Aβ oligomer interaction in AD brain extracts; type: binding; conditions: IgG isotype control
Description: After rigorous data analysis with SAINTexpress, four proteins (DDX6, DSP, JUP, and HRNR) were identified as potential Aβ oligomer‐binding partners. To validate these findings, we selected DSP and DDX6 as positive controls for co‐IP analysis; tau proteins were used as negative controls. Input samples, IP, co‐IP extracts, and IgG controls were adjusted to ensure equal amounts of protein for comparison. […] The IP enrichment effect was substantial for Aβ oligomers, DDX6, DSP, and tau proteins. In the co‐IP extracts for DDX6 and DSP, Aβ oligomers were detected at approximately 55 and 30 kDa, respectively (indicated by “ [drawing 1] ”). […] Isotype control IgG was used to exclude nonspecific binding (Figure 2A).
A Co‐IP kit (Thermo Fisher Scientific; #26149, USA) was used for the assay. Antibodies (2 µg) were crosslinked to a reinforced AminoLink coupling resin (20 µL of beads) and immobilized on a Pierce spin column at room temperature. Protein extracts (1 mg) were added to the spin column and incubated overnight at 4°C with rotation. The spin column was then transferred to a new collection tube, and 60 µL of elution buffer (pH 2.8, containing tertiary amine) was added. The column was centrifuged, and the eluate was analyzed to detect the presence of the target protein.
Protein concentrations in the co‐IP extracts were measured using a bicinchoninic acid assay (#23225, Thermo Fisher Scientific, USA). For each sample, 20 µL of protein was loaded, with the following amounts of human‐derived Aβ oligomers (AD1–AD6) used: 1.8 µg, 2.0 µg, 1.9 µg, 1.6 µg, 2.0 µg, and 1.8 µg, respectively. Equivalent amounts of co‐IP extracts were loaded into the remaining lanes. A 5× loading buffer was added to the protein samples to achieve a final concentration of 1×, and the samples were incubated at 95°C for 5 min [44]. […]
B. The PVDF membrane was probed with the Aβ oligomer antibody (A11), indicating enrichment of Aβ oligomers (post-IP) with bands observed at 55 kDa and 30 kDa. Aβ oligomers were detected in the co-IP products of DDX6 (indicated by “✸”). […]

Aβ oligomers in AD brain = test: IHC colocalization with Aβ oligomers in AD brain sections; parameters: species or system human; conditions: AD7–AD10, n = 4; fluorescence scan over 120 µm
Description: To further validate the binding interactions between Aβ oligomers and the four proteins, we performed immunohistochemistry (IHC) on brain sections from four AD patients (AD7–AD10). We analyzed the colocalization of Aβ oligomers (red) with DDX6, JUP, HRNR, and DSP (all green), as well as 4',6‐diamidino‐2‐phenylindole (DAPI)‐stained nuclei (blue). […] We also performed fluorescence intensity scanning from left to right across stained brain tissue slices (120 µm). […] The combined results from co‐IP and IHC confirm that these four proteins can bind to Aβ oligomers.
Sections were dewaxed, subjected to antigen retrieval, and blocked. They were then incubated with primary antibody (1:500) overnight at 4°C, followed by secondary antibody (1:200). Nuclei were stained with DAPI (Beyotime; C1002, Shanghai, China) for 10 min in the dark.

AD patients = conditions: cited from earlier work

Q: For DYCLKRELLMGIFEMGWE [34–45], which “interaction with Aβ42 oligomers” value (Aβ42 oligomers [1]) is on record?
A: all four binding peptides interacted with Aβ oligomers

Q: What does the source list for GIDIQAVNVVINFDF [compound 133]?
A: gray value of spot on peptide array (Aβ42 oligomers [2]): exceeding 30%; interaction with Aβ42 oligomers (Aβ42 oligomers [1]): all four binding peptides interacted with Aβ oligomers

Q: Which results are given for GKSGAYLIPLLERLD [compound 49]?
A: gray value of spot on peptide array (Aβ42 oligomers [2]): exceeding 30%; interaction with Aβ42 oligomers (Aβ42 oligomers [1]): all four binding peptides interacted with Aβ oligomers

Q: Which results are given for IKPIPSNIDKSLYVAEYHSEPVED [153–156]?
A: gray value of spot on peptide array (Aβ42 oligomers [2]): exceeding 30%; interaction with Aβ42 oligomers (Aβ42 oligomers [1]): all four binding peptides interacted with Aβ oligomers

Q: With “KPYEINLMEELTLKG [control peptide, reference compound]” as the molecule, how does the “interaction with Aβ42 oligomers” value (Aβ42 oligomers [1]) read?
A: did not interact with Aβ oligomers

Q: Which SAINT score [3] does the source give for desmoplakin [DSP] here?
A: 0.6608

Q: What about the “binding to Aβ oligomers by co‐IP” value [4] of the same molecule?
A: DDX6 and DSP were also detected in Aβ oligomer co‐IP extracts; also recorded: DSP was detected in the co-IP products of Aβ oligomers

Q: And the “colocalization with Aβ oligomers” value (Aβ oligomers in AD brain)?
A: strong colocalization

Q: With hornerin [HRNR] as the molecule, how does the SAINT score [3] read?
A: 0.5246

Q: What about the “colocalization with Aβ oligomers” value (Aβ oligomers in AD brain) of the same molecule?
A: strong colocalization

Q: Which “efficacy in clinical trials (in words)” value (AD patients; ref [11], [12], [13], [14]) does the source give for solanezumab [reference compound] here?
A: failed to demonstrate efficacy in improving cognitive function during key clinical trials

Q: With “tau: tau proteins were used as negative controls [reference compound]” as the molecule, how does the “binding to Aβ oligomers by co‐IP” value [4] read?
A: No apparent binding was observed; also recorded: tau was not detected in the co-IP products of Aβ oligomers

B1: lecanemab (antibody, chains of the INN, looked up, V domains shown)
VH: EVQLVESGGGLVQPGGSLRLSCSASGFTFSSFGMHWVRQAPGKGLEWVAYISSGSSTIYYGDTVKGRFTISRDNAKNSLFLQMSSLRAEDTAVYYCAREGGYYYGRSYYTMDYWGQGTTVTVSS
VL: DVVMTQSPLSLPVTPGAPASISCRSSQSIVHSNGNTYLEWYLQKPGQSPKLLIYKVSNRFSGVPDRFSGSGSGTDFTLRISRVEAEDVGIYYCFQGSHVPPTFGPGTKLEIK
Q: Which results are given for B1?
A: brain shrinkage, share of AD patients (AD patients; after 18 months of treatment, ref [16]): approximately 28%; brain hemorrhage (AD patients; early AD patients, ref [15]): 17.3%; edema or effusion (AD patients; early AD patients, ref [15]): 12.6%; headaches (AD patients; early AD patients, ref [15]): 11.1%; delay of cognitive decline (AD patients; early‐stage AD patients, ref [15]): 27%; severe side effects (in words) (AD patients; some patients, ref [15], [16]): severe side effects, including brain hemorrhage, brain shrinkage, and even death

B2: junction plakoglobin (protein)
chain: MEVMNLMEQPIKVTEWQQTYTYDSGIHSGANTCVPSVSSKGIMEEDEACGRQYTLKKTTTYTQGVPPSQGDLEYQMSTTARAKRVREAMCPGVSGEDSSLLLATQVEGQATNLQRLAEPSQLLKSAIVHLINYQDDAELATRALPELTKLLNDEDPVVVTKAAMIVNQLSKKEASRRALMGSPQLVAAVVRTMQNTSDLDTARCTTSILHNLSHHREGLLAIFKSGGIPALVRMLSSPVESVLFYAITTLHNLLLYQEGAKMAVRLADGLQKMVPLLNKNNPKFLAITTDCLQLLAYGNQESKLIILANGGPQALVQIMRNYSYEKLLWTTSRVLKVLSVCPSNKPAIVEAGGMQALGKHLTSNSPRLVQNCLWTLRNLSDVATKQEGLESVLKILVNQLSVDDVNVLTCATGTLSNLTCNNSKNKTLVTQNSGVEALIHAILRAGDKDDITEPAVCALRHLTSRHPEAEMAQNSVRLNYGIPAIVKLLNQPNQWPLVKATIGLIRNLALCPANHAPLQEAAVIPRLVQLLVKAHQDAQRHVAAGTQQPYTDGVRMEEIVEGCTGALHILARDPMNRMEIFRLNTIPLFVQLLYSSVENIQRVAAGVLCELAQDKEAADAIDAEGASAPLMELLHSRNEGTATYAAAVLFRISEDKNPDYRKRVSVELTNSLFKHDPAAWEAAQSMIPINEPYGDDMDATYRPMYSSDVPLDPLEMHMDMDGDYPIDTYSDGLRPPYPTADHMLA
Q: Which SAINT score [3] does the source give for B2 here?
A: 0.5846

Q: And the “colocalization with Aβ oligomers” value (Aβ oligomers in AD brain)?
A: strong colocalization
